In one series the test system is CYP1A2. The note with it: caffeine as CYP1A2 substrate; cited from earlier work.
For series [1] the following is noted: previous studies with dovitinib; cited from earlier work.
Another series has as its system CYP3A4. The note with it: in vitro; cited from earlier work.
For series [2] the following is noted: cited from earlier work.
The nature of series [3]: Plasma pharmacokinetics of dovitinib, phase I trial. The series is classed as in vivo. The note with it: human, oral.
For the next series, the system named is FMO3. The note with it: in vitro; cited from earlier work.
The subject of series [4] is NSCLC with EGFR activating mutations. Conditions: cited from earlier work.
For series [5] the following is noted: healthy volunteers, 150 mg dose, cited from earlier work.
The conditions of series [6]: co-administered strong CYP3A4 inducer rifampin; cited from earlier work.
The conditions of series [7]: NSCLC patients who currently smoke; cited from earlier work.
The conditions of series [8]: cited from earlier work. The source holds these as a separate data set.
The format of series [9] is in vivo, human.
[10] abbreviates: post-dovitinib relative to pre-dovitinib.

Where two headings read alike, the source gives them in different places.

Turning to `CN1CCN(c2ccc3nc(-c4c(N)c5c(F)cccc5[nH]c4=O)[nH]c3c2)CC1` [Dovitinib], the “reduction of the AUC of caffeine” value in the series with CYP1A2 is 96%. In addition, in [1], the “decreased appetite, regardless of grade” value is 37.0%; the “diarrhea, regardless of grade” value is 68%; the “fatigue, regardless of grade” value is reported as 40.5%; the “nausea, regardless of grade” value is 66.7%. In [1], the “vomiting, regardless of grade” value is recorded as 60.6%. In the series on CYP3A4, the “share of metabolism by CYP3A4” value is on record as 17–35%. For the same molecule, in series [2], the “effect of food on bioavailability” value was “food does not alter the bioavailability”. For the same molecule, in series [3], the Tmax (as a rule, the time from dosing to the highest level) was 6 h and the half-life (as a rule, how long it takes for the measured level to halve) is 32 ± 19 h. Besides, the “share of metabolism by FMO3” value in the series on FMO3 is 65–83%.
On to `C#Cc1cccc(Nc2ncnc3cc(OCCOC)c(OCCOC)cc23)c1` [Erlotinib], for which the “time to development of resistance in the majority of patients” value in [4] (NSCLC patients with EGFR activating mutations) is “less than 1 year”. Moreover, the “response rates (RRs)” value in series [4] (NSCLC patients with known EGFR activating mutations) is recorded as 60–70%. For the same molecule, the AUC (usually concentration integrated over time) in [5] (non-smokers) is 18,726 ng × h/mL. The Cmax (as a rule, the highest concentration seen after dosing) in series [5] (nonsmokers) is 1056 ng/mL. For the same molecule, in [5] (smokers vs non-smokers), the “decrease in AUC in smokers” value is reported as 64%. In series [5] (smokers vs nonsmokers), the “decrease in Cmax in smokers” value is 35%. Further, in series [5] (smokers), the AUC is 6718 ng·h/mL and the maximum concentration (Cmax) was 689 ng/mL. In [6], the “decrease in AUC with rifampin” value is reported as 66% and the “decrease in Cmax with rifampin” value is listed as 29%. Also, in [7], the “steady-state trough concentration, fold lower compared to non-smokers” value is given as 2 fold. In addition, the median half-life in series [8] is 36.2 h. For the same molecule, in series [9] (human, plasma, oral, 150 mg), the AUC(0-t) (usually exposure summed from dosing to a finite time, without extrapolation to infinity) amounted to 41000 ng·h/mL and the half-life is 50 ± 53 h. For the same molecule, the “decrease in AUC0–24 during dovitinib co-administration” value in series [9] (p < 0.01, six patients) stood at 97%. In addition, the “decrease in Cmax during dovitinib co-administration” value in series [9] (p = 0.02, six patients) is reported as 93%. Also, in series [9] (setting [10]), the “AUC0–24h geometric mean ratio (D + E:E), mean” value turned out to be 0.03; the “Cmax geometric mean ratio (D + E:E), mean” value is 0.07; the “T1/2, terminal geometric mean ratio (D + E:E), mean” value was determined as 0.10.
On to `C#Cc1cccc(Nc2ncnc3cc(OCCOC)c(OCCO)cc23)c1` [OSI-420], for which the “AUC0–24h” value in series [9] (Erlotinib alone (E), Day 14 ± 4, normalized to erlotinib 150 mg dose, mean ± SD) was found to be 5381 ± 2982 ng·h/mL. In series [9] (setting [10]), the “AUC0–24h geometric mean ratio (D + E:E), mean” value was determined as 0.06 and the “Cmax geometric mean ratio (D + E:E), mean” value is listed as 0.17.

These data come from article PMC4613811 (Lung cancer (Amsterdam, Netherlands), 2015).
